This note sets out measurements from ChEMBL document CHEMBL1124518, “Nonsteroidal cardiotonics. 2. The inotropic activity of linear, tricyclic 5-6-5 fused heterocycles” (1989).

The subject of test [1] is Canis familiaris. The test is described as follows: Time after which maximum increase in contractility was observed when administered orally in conscious dogs at 1 mg/kg. In kind it is functional, Canis lupus familiaris. To be noted: route oral.
Test [2] has as its system Canis familiaris. In words: Amount of time during which increase in administered orally in conscious dogs at 0.3 mg/kg. The test is classed as functional, Canis lupus familiaris. To be noted: route oral.
Test [3] has as its system Canis familiaris. In words: Maximum increase in dP/dt60 when administered orally in dogs at dose 0.3 mg/kg. The test is classed as functional, Canis lupus familiaris. To be noted: route oral.
The test system of test [4] is Canis familiaris. In words: Maximum increase in dP/dt60 when administered orally in dogs at dose 1 mg/kg. In kind it is functional, Canis lupus familiaris. To be noted: route oral.
Test [5] is filed under the species Felis catus. The test is described as follows: Effective dose required to produce an increase in dP/dt5 by 1500 mmHg/s in cats. The test is classed as functional.
Test [6] has as its system Canis familiaris. In words: Maximum increase in dP/dt when administered intravenously in dogs at 1 mg/kg dose. The test is classed as functional, Canis lupus familiaris. To be noted: route intravenous.
Test [7] is filed under the species Rattus norvegicus. In words: Effective dose required to produce an increase in dP/dt5 by 1500 mmHg/s in rats. The test is classed as functional.
Test [8] has as its system Canis familiaris. In words: Amount of time during which increase in administered orally in conscious dogs at 1 mg/kg. The test is classed as functional, Canis lupus familiaris. To be noted: route oral.
The species entered for test [9] is Canis familiaris. The test is described as follows: Effective dose required to produce an increase in dP/dt5 by 1500 mmHg/s in dogs. In kind it is functional, Canis lupus familiaris.
Test [10] concerns Rattus norvegicus. The test is described as follows: Maximum increase in dP/dt when administered intravenously in rats at 1 mg/kg. The test is classed as functional. To be noted: route intravenous.
The subject of test [11] is Felis catus. The test is described as follows: Maximum increase in dP/dt when administered intravenously in cats at 3 mg/kg dose. In kind it is functional. To be noted: route intravenous.
In test [12] the test system is Canis familiaris. In words: Maximum increase in dP/dt60 when administered orally in dogs at dose 0.5 mg/kg. In kind it is functional, Canis lupus familiaris. To be noted: route oral.
The subject of test [13] is Canis familiaris. The test is described as follows: Time after which maximum increase in contractility was observed when administered orally in conscious dogs at 0.5 mg/kg. In kind it is functional, Canis lupus familiaris. To be noted: route oral.
The test system of test [14] is Canis familiaris. The test is described as follows: Maximum increase in dP/dt when administered intravenously in dogs at 0.3 mg/kg dose. In kind it is functional, Canis lupus familiaris. To be noted: route intravenous.
Test [15] relates to Rattus norvegicus. In words: Maximum increase in dP/dt when administered intravenously in rats at 1 mg/kg dose. The test is classed as functional. On the set-up: unit not given here. To be noted: route intravenous.
The subject of test [16] is Canis familiaris. In words: Amount of time during which increase in administered orally in conscious dogs at 0.5 mg/kg. The test is classed as functional, Canis lupus familiaris. To be noted: route oral.
Test [17] has as its system Rattus norvegicus. The test is described as follows: Maximum increase in dP/dt when administered intravenously in rats at 10 mg/kg dose. To be noted: route intravenous. The test is classed as functional. On the set-up: unit not given here.
Test [18] deals with Canis familiaris. The test is described as follows: Maximum increase in dP/dt when administered intravenously in dogs at 1 mg/kg. In kind it is functional, Canis lupus familiaris. To be noted: route intravenous.
For test [19], the system named is Felis catus. In words: Maximum increase in dP/dt when administered intravenously in cats at 3 mg/kg. In kind it is functional. To be noted: route intravenous.
Test [20] concerns Rattus norvegicus. The test is described as follows: Maximum increase in dP/dt when administered intravenously in rats at 3 mg/kg. The test is classed as functional. To be noted: route intravenous.
Test [21] concerns Felis catus. The test is described as follows: Maximum increase in dP/dt when administered intravenously in cats at 0.1 mg/kg dose. In kind it is functional. To be noted: route intravenous.
For test [22], the system named is Felis catus. The test is described as follows: Maximum increase in dP/dt when administered intravenously in cats at 0.3 mg/kg dose. In kind it is functional. To be noted: route intravenous.

`CC1(C)C(=O)Nc2ccc(C3=NNC(=O)CC3)cc21` [INDOLIDAN] displayed a Time in test [1] of 45 min. In [2], this compound showed a Duration above 6 h. For the same compound, the Max in [3] is 2.8 mmHg s-1.
With `CC(C)c1nc2cc3c(cc2[nH]1)C(C)(C)C(=O)N3`, the figures for the Max in [4], in [6] and in test [10] were 2.2 mmHg s-1, 1.9 mHg s-1 and 2.3 mmHg s-1, respectively. In addition, the Time in test [1] was found to be 30 min. The ED1.5 is 0.09 mg/kg in [5], 0.22 mg/kg in [7] and 0.46 mg/kg in [9]. The Duration in test [8] came to 3 h.
For the compound `CC1(C)C(=O)Nc2cc3[nH]c(O)nc3cc21`, the Max was found to be 2.9 mmHg s-1 in test [11], 1.6 mHg s-1 in test [12], 2 mHg/s in test [14] and 3 in [15]. Further, the Time was determined as 45 min in test [1] and 60 min in [13]. Also, the ED1.5 was determined as 0.08 mg/kg in test [5], 0.13 mg/kg in test [7] and 0.12 mg/kg in test [9]. Also, the Duration in test [8] was above 6 h; in [16], 6 h.
`Cn1c(O)nc2cc3[nH]c(-c4ccncc4)nc3cc21`: the ED1.5 in test [5] worked out at 0.01 mg/kg; in test [7], 0.33 mg/kg; in [9], 0.12 mg/kg. The Duration in test [8] turned out to be 0 h. Further, the Max came to 2.6 in test [17] and 2.9 mmHg s-1 in [18].
`Cc1nc2cc3c(cc2[nH]1)C(C)(C)C(=O)N3` had a Time in test [1] of 30 min. Further, the figures for the ED1.5 in [5], in test [7] and in test [9] were 0.17 mg/kg, 0.48 mg/kg and 0.46 mg/kg, respectively. Also, the Max in test [6] came to 2.2 mHg s-1; in [19], 2.8 mHg/s; in [17], 3.5. For the same compound, the Duration in [8] amounted to 3 h.
Take `CCn1c(O)nc2cc3[nH]c(-c4ccncc4)nc3cc21`: the values for the Max in [20] and in [21] were 2.3 mmHg s-1 and 3.1 mmHg s-1, respectively. The results for the ED1.5 in [5] and in test [7] were 0.007 mg/kg and 0.05 mg/kg, respectively. This compound yielded a Duration in test [8] of 0 h.
As for `CC1(C)C(=O)Nc2cc3[nH]c(-c4cnccn4)nc3cc21`, the ED1.5 was found to be 0.04 mg/kg in [5] and 0.1 mg/kg in [7]. In addition, the results for the Max in [22] and in test [17] were 2.7 mHg/s and 2.6, respectively.
